Source: PMC8920379, “The discovery of berberine erythrocyte-hemoglobin self-assembly delivery system: a neglected carrier underlying its pharmacokinetics” (Drug Delivery, 2022)
Like-named read-outs stand apart in the source and are kept apart here.

Tests used:
[1] = tested on: 2% erythrocytes; test: Hemolysis rate; type: cell-based, rats; conditions: 37 °C, 2 h
Protocol: (§1) The whole blood was collected from rats by orbital plexus vein and transferred into a blood-collection tube containing ethylene diamine tetraacetic acid (EDTA) as an anticoagulant. The whole blood was centrifuged at 3000 rpm for 10 min. The plasma and the buffy coat in the supernatant were removed by aspiration, and erythrocytes were washed three times in cold phosphate buffer saline (PBS) and centrifuged for 10 min at 3000 rpm, and then resuspended in an appropriate volume of PBS.
(§2) The hematocrite of washed erythrocytes was adjusted by PBS to 2%. In 5-mL Eppendorf tubes, 1 mL of 2% erythrocytes was incubated with 1 mL of different concentrations of BBR hydrochloride at 37 °C for 2 h. The final concentrations of BBR hydrochloride in reaction system were 0.125, 0.250, 0.500, 1.000, 1.333, 1.500, 1.600 mg/mL, respectively. One mL of 2% erythrocytes incubated with 1 mL saline solution served as the […] group while 1 mL 2% erythrocytes incubated with 1 mL distilled water served as the […] one. After incubation, the erythrocytes suspension was centrifuged at 3000 rpm for 10 min. Then 150 μL supernatant was added to the 96-well plate. Three parallel wells were set for each group, and the absorbance at 545 nm of each sample well was measured by a microplate reader. The imaging system was employed to observe whether BBR induced hemolysis. The hemolysis rate was calculated according to the following formula: Hemolysis rate (%) = [(ODsample−ODnegative)/(ODpositive −ODnegative)] ×100%

[2] = Hemolysis rate; type: cell-based, rats; conditions: rat, washed rat erythrocytes, 2% hematocrit suspension, 2% erythrocytes, 37 °C
Protocol: as §1, §2

[3] = target: T1, bovine hemoglobin (BHB) (Bos taurus, UniProt P01966+P02070); test: Circular dichroism of BHB-BBR systems; type: binding; conditions: CD, BHB:BBR molar ratios up to 1:8, reduced from 36.87% for BHB alone, pH 7.4, 298 K
T1 construct: purchased Sigma Aldrich
Protocol: In addition, CD spectra were collected from 200 to 260 nm with three scans averaged for each CD spectrum. The molar ratio (1:1) of BHB: BBR was used for the measurement. Briefly, BHB and BBR were dissolved in Tris-HCl (pH 7.4), and the solutions were freeze-dried into powder. Raman spectra were measured from 2600 to 400 cm^−1 using the Nd-YAG laser (1064 nm). Due to the existence of inner filter effects, the fluorescence parameter was corrected using the equation: F=F0×10^(AEX+AEM/2) where F and F0 are the fluorescence intensity corrected and observed, respectively; AEX and AEM are the sums of the absorbance of samples at excitation and emission wavelengths (Chen et al., [2021]).
In this work, the molar ratios of 1:0, 1:2, 1:4 and 1:8 for BHB: BBR were utilized for the CD records. […] Besides, the helix of α chain can be calculated following the below equation: α−Helix(%)=−MRE208−4000/33000−4000×100 where MRE208 is the observed MRE value at 208 nm, 4000 is the MRE value of β-form and random coil conformation cross at 208 nm, and 33,000 is the MRE value of pure α-helix at 208 nm (Shobini et al., [2001]).

[4] = parameters: method as in Liu et al., 2010; Chen et al., 2011; conditions: ref Liu et al., 2010; Chen et al., 2011; cited from earlier work
[5] = cited from earlier work
[6] = Bioavailability study of BBR via intravenous and oral administration (free drug in plasma, HPLC); type: in vivo, SD rats; conditions: rat plasma; for AUC(0-t): n = 8, mean ± SEM
Protocol: Sixteen SD rats were randomly divided into two groups (n = 8) and received a single intragastrical administration (i.g.) of BBR at the dose of 400 mg/kg and intravenous injection (i.v.) at 2.5 mg/kg dose, respectively. Blood samples (0.5 mL) were obtained from the retroorbital sinus at 0.083, 0.167, 0.25, 0.5, 1, 2, 4, 8 and 24 h after administration for i.v. group and at 0.083, 0.167, 0.25, 0.5, 1, 2, 4, 8 and 24 h for i.g. groups. The plasma samples were processed with a protein precipitation method using acetonitrile and the concentration of free drug was analyzed by HPLC (Li et al., [2016]).

[7] = SD, intravenous administration 2.5 mg/kg, n = 8
[8] = SD, oral administration 400 mg/kg, n = 8

T1 sequence (P01966 2-142 limits assumed): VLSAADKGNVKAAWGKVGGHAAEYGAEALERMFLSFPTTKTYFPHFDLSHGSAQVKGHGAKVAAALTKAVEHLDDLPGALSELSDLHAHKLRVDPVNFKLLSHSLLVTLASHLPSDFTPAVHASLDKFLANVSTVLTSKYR
T1 sequence (P02070 whole entry): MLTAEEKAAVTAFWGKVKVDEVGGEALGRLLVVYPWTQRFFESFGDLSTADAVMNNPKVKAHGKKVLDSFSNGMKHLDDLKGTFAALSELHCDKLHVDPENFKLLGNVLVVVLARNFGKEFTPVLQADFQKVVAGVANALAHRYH

**Q.** Which “hemolysis of the BBR-erythrocyte system” value ([1]; BBR 1.00 mg/mL) does the source give for `COc1ccc2cc3[n+](cc2c1OC)CCc1cc2c(cc1-3)OCO2` [BBR, Berberine] here?
**A.** relatively stable without hemolysis

**Q.** And the “hemolysis of the erythrocyte” value ([1]; BBR concentration below 1.00 mg/mL)?
**A.** no hemolysis

**Q.** What about the hemolysis at 2 h, 1.5 mg/mL ([2]; BBR 1.50 mg/mL) of the same compound?
**A.** 58.2%

**Q.** And the hemolysis at 2 h, 1.6 mg/mL ([2]; BBR 1.60 mg/mL)?
**A.** 89.7%

**Q.** And the “α-helicity of BHB after addition of BBR” value [3]?
**A.** 33.53%

**Q.** What about the oral bioavailability [4] of the same compound?
**A.** less than 1%

**Q.** What about the “concentration of BBR in the liver relative to plasma” value ([5]; background statement of the introduction, no reference given) of the same compound?
**A.** about 10 fold

**Q.** And the “average concentration of BBR in liver relative to plasma” value ([5]; ref Yan et al., 2009, Tan et al., 2013, Yu et al., 2017)?
**A.** 10–30 times

**Q.** And the AUC(0-inf) [6, 7]?
**A.** 7440 ± 548 ng·h/mL

**Q.** And the MRT [6, 7]?
**A.** 5.6 ± 0.561 h

**Q.** What about the AUC(0-t) ([6]; SD, intravenous administration 2.5 mg/kg) of the same compound?
**A.** 6420 ± 685 ng·h/mL

**Q.** What about the Cmax ([6]; SD, intravenous administration 2.5 mg/kg, n = 8, read-out: Cmax/C0 (C0)) of the same compound?
**A.** 2830 ± 132 ng/mL

**Q.** And the AUC(0-inf) [6, 8]?
**A.** 685 ± 93 ng·h/mL

**Q.** What about the MRT [6, 8] of the same compound?
**A.** 4.53 ± 0.515 h

**Q.** What about the Tmax [6, 8] of the same compound?
**A.** 1 h

**Q.** And the AUC(0-t) ([6]; SD, oral administration 400 mg/kg)?
**A.** 681 ± 93 ng·h/mL

**Q.** And the CL/F ([6]; SD, oral administration 400 mg/kg, n = 8, read-out: Clz/F (converted))?
**A.** 4230 mL/min/kg

**Q.** What about the Cmax ([6]; SD, oral administration 400 mg/kg, n = 8, read-out: Cmax/C0 (Cmax)) of the same compound?
**A.** 260 ± 32 ng/mL

**Q.** What about the t1/2z ([6]; intravenous administration 2.5 mg/kg, n = 8, 2.5 mg/kg) of the same compound?
**A.** 3.885 ± 0.389 h

**Q.** And the t1/2z ([6]; oral administration 400 mg/kg, n = 8, 400 mg/kg)?
**A.** 3.136 ± 0.357 h
